Measured values from PubChem BioAssay (NCI).
“And” between values parts separate entries of the source, which are not always exact repeats. Identical values can stand only once.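 Five compound concentrations were applied to cells in 96-well plates for 48 hours; endpoints were derived by simple linear interpolation of the resulting dose-response curve. GI50 = concentration required for 50% inhibition of growth. TGI: concentration producing complete growth inhibition.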

What was measured:
Assay in all cases: NCI tumour cell line growth inhibition, 48 h
CAKI-1 renal = tested on: CAKI-1 renal
CCRF-CEM leukemia = tested on: CCRF-CEM leukemia
LOX IMVI melanoma = tested on: LOX IMVI melanoma
M14 melanoma = tested on: M14 melanoma
MDA-MB-435 = tested on: MDA-MB-435
MOLT-4 leukemia = tested on: MOLT-4 leukemia
OVCAR-5 ovarian = tested on: OVCAR-5 ovarian
PC-3 prostate = tested on: PC-3 prostate
SK-MEL-28 melanoma = tested on: SK-MEL-28 melanoma
SNB-75 CNS = tested on: SNB-75 CNS

Row | Compound | GI50 (CAKI-1 renal) [µM] | TGI (CAKI-1 renal) [µM] | GI50 (CCRF-CEM leukemia) [µM] | TGI (CCRF-CEM leukemia) [µM] | GI50 (LOX IMVI melanoma) [µM] | TGI (LOX IMVI melanoma) | GI50 (M14 melanoma) [µM] | TGI (M14 melanoma) [µM] | GI50 (MDA-MB-435) [µM] | TGI (MDA-MB-435) | GI50 (MOLT-4 leukemia) [µM] | TGI (MOLT-4 leukemia) [µM] | GI50 (OVCAR-5 ovarian) [µM] | TGI (OVCAR-5 ovarian) | GI50 (PC-3 prostate) [µM] | TGI (PC-3 prostate) | GI50 (SK-MEL-28 melanoma) [µM] | TGI (SK-MEL-28 melanoma) [µM] | GI50 (SNB-75 CNS) [µM] | TGI (SNB-75 CNS) [µM]
1 | COC(=O)CCCCCCCCC(=O)c1c(C)[nH]c(/C=C2\N=C(c3ccc[nH]3)C=C2OC)c1C | 26.6 | > 87.7 | 2.3 | > 100 | 0.207 | 0.466 µM | 2.64 | > 21.3 | 3.92 | > 100 µM | 0.755 | > 43.6 | > 28.7 | > 100 µM | 4.88 | > 100 µM | 14.9 | > 100 | > 31 | > 83.7
2 | COc1cc2cc(C(=O)N3C[C@H](CCl)c4c3cc(O)c3ccccc43)[nH]c2c(OC)c1OC | < 0.01 |  | < 0.01 | 0.048 | 0.0201 | 1.83 µM and 12.3 µM | 0.0268 |  | 0.0201 | 0.634 µM and 0.0912 µM | < 0.01 | 6.22 | 0.0237 | 2.15 µM and 13.7 µM | 0.0355 | 2.27 µM and 18.9 µM |  | 1.99 |  | 0.449
3 | c1ccc(-c2nn(-c3ccccc3)[n+](-c3ccccc3-c3ccccc3)n2)cc1 | 16.5 | 89.9 | 0.743 | 43.7 | 1.02 | 18.8 µM | 1.63 | 16.6 | 0.461 | 2.82 µM | 1.8 | 17.6 | 4.19 | > 100 µM | 0.37 | 6.18 µM | 2.3 | 27.2 | 1.23 | 19.9
4 | Cc1cncc2cccc(S(=O)(=O)N3CCCNC[C@@H]3C)c12 | 5.91 | > 100 | 20.3 | > 100 | 7.94 | 87 µM | > 93.4 | > 100 | > 100 | > 100 µM | 20.7 | > 96.3 | 17.1 | > 100 µM | 44.3 | > 100 µM | > 100 | > 100 | 0.214 | 6.52
5 | CCN(CC)CCn1nc2c3c(cccc3c1=O)-c1ccccc1-2 | 1.39 | > 50 | 2.08 | 45.9 | 1.31 | 4.74 µM | 2.15 | 13.1 | 2.96 | 10.5 µM | 1.44 | 8.46 | 2.3 | > 50 µM | 3.55 | 23.6 µM | 2.56 | 15.6 | 3.27 | 11.1
6 | Nc1ccc(Sc2ccc3c4c2cccc4c(=O)n2c4ccccc4nc32)cc1 | 1.82 | 8.48 | 2.35 | > 100 | 3.32 | 14.3 µM | 4.51 | 27.9 | 12.6 | 82.2 µM | 2.57 | 7.68 | 14.9 | 46 µM | 2.67 | 21.7 µM | 12.8 | 35.3 | 3.35 | 48.1
7 | N#CSc1cc(-c2nc3ccccc3o2)ccc1N | 25.5 | 61.9 | 10.6 | 30.2 | 13.5 | 43.9 µM | 26.2 | 80.4 | 24 | 64.1 µM | 4.09 | 22.1 | 25.2 | 76.6 µM | 12.5 | 81.6 µM | 29.6 | > 100 | 1.83 | > 20.7
8 | NC(=S)c1cn(C2OC(CO)C(O)C2O)c2ncnc(N)c12 (stereo not given) | 0.221 | 2.22 | 0.153 | 0.507 | 0.139 | 2.49 µM | 0.0989 | 0.354 | 0.0633 | 0.262 µM | 0.0386 | 0.261 | 0.353 |  | 0.283 | > 20.1 µM | 0.112 | 0.483 | 0.223 | 1.84
9 | O=C(O)c1ccccc1/C=C1/Nc2ccccc2C1=O |  | > 100 |  | > 100 |  | > 100 µM |  | > 100 |  | > 100 µM |  | > 100 |  | > 100 µM |  | > 100 µM |  | > 100 |  | > 100
10 | COc1ccc(C2C3=C(COC3=O)N(CCO)c3cc4c(cc32)CCC4)cc1OC (stereo not given) | 0.858 | > 50 | 1.73 | > 50 | 1.53 | > 50 µM | 0.542 | > 11.8 | 0.132 | 0.448 µM | 2.1 | > 50 | 3.59 | > 50 µM | 0.524 | > 50 µM | 0.697 | > 50 | 0.253 | 2.48
11 | COc1ccc(C(=O)C(CN(C)C)c2ccccc2)cc1 (stereo not given) | 2.08 | 7.82 | 1.84 | 11.9 | 1.73 | 3.8 µM | 1.68 | 3.33 | 2.83 | 11.4 µM | 4.41 | > 100 | 3.82 | 10 µM | 4.6 | 17.4 µM | 1.83 | 3.38 | 12.8 | 27.3
12 | CCCCOc1nc2ccccc2cc1C1CNC(=O)c2ccccc2N1 (stereo not given) | 3.11 | 23.6 | 2.93 | 18.8 | 3.24 | 15.4 µM | 1.53 | 9.03 | 0.546 | 1.82 µM | 2.95 | 13.5 | 5.4 | 31.4 µM | 2.95 | 13.9 µM | 4.82 | 23.6 | 1.75 | 12.2
13 | O=C(Nc1ccc(I)cc1F)c1cc(F)ccc1O | 0.342 | 2.86 | 1.85 | 12.4 | 0.418 | 3.91 µM | 0.407 | 3.26 | 0.512 | 4.45 µM | 0.611 | 2.59 | 4.04 | > 100 µM | 0.843 | 6.4 µM | 0.353 | 1.91 | 0.225 | 2.31
